In patent US20120022048A1, “Anti-proliferative substituted pyrazolo[3,4-d]pyrimidines derivatives (SPP) to inhibit immune activation, virus replication and tumor growth” (priority 2010, published 2012):
Entries after “also recorded” stand apart in the source; their conditions may differ. Read-outs that look alike come from different tables or passages of the source.

Legend:
[1] = tested on: primary human CD4 T-lymphocytes; test: Cell hyperproliferation in primary T cells (CFSE staining, mitotic index); assay type: cell-based; settings: for anti-proliferative activity (in words) / mitotic index %: SPPs 10 μM, Imatinib 10 μM; for anti-proliferative activity (in words): compared with HU 100 μM, HU+ddI or untreated control; for Anti-proliferative capacity: class symbol, Table 6; for decrease/inhibition of cell proliferation compared to not treated control: SPPs and Imatinib 10 μM; for decrease/inhibition of cell proliferation compared to not treated control / mitotic index %: HU 100 μM; for mitotic index %: % of not treated control (100%), day 10
Description: We built up an experimental model using primary T cells to study the activity of the compounds on induced hyperproliferation of cells, which is a characteristic of both chronic viral diseases and cancer including HIV and leukemia.
(§1) Unstimulated (quiescent/resting, day 0 to 5) primary human CD4 T-lymphocytes were obtained by magnetic bead separation from healthy, normal donors. After five days in culture, cells were activated with PHA (5 μg/ml) to induce hyperproliferation then, at day 7, IL-2 (20 U/ml) was added (stimulated, day 6 to 10). All available compounds were tested at a concentration of 10 μM. […] At day 10, cells were harvested. Proliferation of T cells, cultured as described above, was studied by staining the cells with carboxyfluorescein diacetate-succinimidyl ester (CFSE) at day 0 (immediately after infection). For data analysis, the mitotic index (M) was used, calculating the sum of mitotic events at each proliferation cycle. To extract a relative number, M was normalized to the total number of cells acquired using the equation M=Σ[(Xn(T)−Xn(T)/2^n)], that gives the number of mitotic events from the experimentally obtained values of the proportion of T cells under each division peak n (Xn) and the total T cells (T). To study the effect of the compounds on apoptosis T cells were cultured as described above and at day 10 cells were stained with Annexin V and 7-AAD, in order to determine the percentage of total apoptotic events.

[2] = tested on: primary human CD4 T-lymphocytes; test: Apoptosis in primary CD4 T cells (Annexin V and 7-AAD staining); assay type: cell-based; settings: for apoptotic effect (in words) / apoptosis %: SPPs 10 μM; for apoptotic effect (in words): compared with HU 100 μM, HU+ddI or untreated control; for apoptosis %: total apoptotic events compared to untreated control, day 10, Imatinib 10 μM, HU 100 μM, ddI 2 μM
Description: as §1
We determined the capacity of the compounds to affect the percentages of apoptotic events after 10 days of treatment in primary CD4 T cells.

HIV-1 NL 4.3 [3] = test: HIV-1 replication in quiescent CD4 T cells (p24 Ag ELISA); assay type: cell-based; settings: for inhibition at 10 µM: Human immunodeficiency virus 1, CD4+ T, read-out: reduction of HIV-1 p24 production / inhibition of HIV replication compared to untreated control; for anti-HIV activity in quiescent cells (in words) / HIV quiescent cells (percentage p24 compared to the untreated control): SPPs 10 μM; for anti-HIV activity in quiescent cells (in words): compared with HU 100 μM, HU+ddI or untreated control; for Antiviral activity in quiescent cells: class symbol, Table 6; for HIV quiescent cells (percentage p24 compared to the untreated control): quiescent CD4 T cells, day 10, HU 100 μM, HU 100 μM+ddI 2 μM
Description: Unstimulated (quiescent/resting, day 0 to 5) human CD4 T-lymphocytes, obtained by magnetic bead separation from healthy, normal donors, were infected with HIV-1 NL 4.3. After five days in culture, cells were stimulated with PHA (5 μg/ml) to induce proliferation, and then, at day 7, IL-2 (20 U/ml) was added (stimulated, day 6 to 10). All available compounds were tested at a concentration of 10 μM. HU 100 μM and HU 100 μM+ddI 2 μM were also employed as comparators and the negative control was left untreated. At day 10, cells and supernatants were harvested and HIV-1 p24 Ag was measured by ELISA. HIV replication was expressed as percentage p24 compared to the untreated control.

HIV-1 NL 4.3 [4] = test: HIV-1 replication in activated T cells (PBMC, p24 Ag ELISA); assay type: cell-based; settings: for inhibition at 10 µM: Human immunodeficiency virus 1, T-cell, read-out: inhibition of p24 production / HIV replication compared to untreated control; for anti-HIV activity in activated T cells (in words): SPPs 10 μM, compared with HU 100 μM, HU+ddI or untreated control; for Antiviral activity in activated cells: class symbol, Table 6; for HIV activated cells (% p24 compared to not treated control): 7 days, SPPs and Imatinib 10 μM, HU 100 μM, ddI 2 μM
Description: The experimental setup described below allows us to detect direct antiviral activity of a compound.
Human PBMC, obtained from healthy, normal donors, were stimulated for two days with PHA 5 μg/ml. Then cells were infected with HIV-1 NL 4.3, IL-2 was added (20 U/ml), cells were plated (10^5 cells per well in 200 μl) and drug treatment started. […] The control was left untreated. After 7 days of incubation at 37° C. supernatants were harvested and HIV-1 p24 Ag was measured by ELISA.

[5] = tested on: Human peripheral blood mononuclear cells (PBMC); settings: 7 days
[6] = % of not treated control (100%), SPPs 10 μM, Imatinib 10 μM, HU 100 μM, HU 100 μM+ddI 2 μM

SMILES	anti-proliferative activity (in words) [1]	Anti-proliferative capacity [1]	apoptotic effect (in words) [2]	inhibition at 10 µM (HIV-1 NL 4.3 [3]; quiescent cells, 10 μM)	anti-HIV activity in quiescent cells (in words) (HIV-1 NL 4.3 [3])	Antiviral activity in quiescent cells (HIV-1 NL 4.3 [3])	inhibition at 10 µM (HIV-1 NL 4.3 [4]; activated T cells, 10 μM)	anti-HIV activity in activated T cells (in words) (HIV-1 NL 4.3 [4])	Antiviral activity in activated cells (HIV-1 NL 4.3 [4])	% viability ([5]; human, 10 μM)	decrease/inhibition of cell proliferation compared to not treated control [1]	mitotic index % [1]	apoptosis % [2]	HIV quiescent cells (percentage p24 compared to the untreated control) (HIV-1 NL 4.3 [3])	HIV activated cells (% p24 compared to not treated control) (HIV-1 NL 4.3 [4]; activated T cells)	% viability [5, 6]	other results
CSc1nc(NCc2ccccc2)c2cnn(CC(Cl)c3ccccc3)c2n1 (stereo not shown) [VS1-003, 1-(2-chloro-2-phenylethyl)-6-(methylthio)-N-benzyl-1H-pyrazolo[3,4-d]pyrimidin-4-amine]	slightly less potent; also recorded: little inferior anti-proliferative capacity compared to HU; also recorded: somewhat less than that of VS1-002	++ (good (++, 50 to 70% activity))	no effect on apoptosis; also recorded: did not affect the percentage of apoptotic events; also recorded: did not induce apoptosis	95%	about as effective as VS1-002	+++ (excellent (+++, greater than 70% activity))	76%	slightly less potent; also recorded: slightly inferior anti-HIV capacity; also recorded: about as effective as VS1-002	+++ (excellent (+++, greater than 70% activity))	103.4 ± 4.0%							
CSc1nc(Nc2cccc(Cl)c2)c2cnn(CC(Cl)c3ccccc3)c2n1 (stereo not shown) [VS1-011, N-(3-chlorophenyl)-1-(2-chloro-2-phenylethyl)-6-(methylthio)-1H-pyrazolo[3,4-d]pyrimidin-4-amine]	increased anti-proliferative capacity compared to 100 μM HU		induced apoptosis; also recorded: extremely proapoptotic; also recorded: strongly proapoptotic	80%	active as antivirals		85%	active as antivirals		70.4 ± 16.9%	100%						increase in apoptotic events compared to the control ([2]; 10 μM, 10 days): 182%
ClC(Cn1ncc2c(NCc3ccccc3)ncnc21)c1ccccc1 (stereo not shown) [VS1-010, N-benzyl-1-(2-chloro-2-phenylethyl)-1H-pyrazolo[3,4-d]pyrimidin-4-amine]	increased anti-proliferative capacity compared to 100 μM HU		induced apoptosis; also recorded: more proapoptotic; also recorded: slight increase	89%	active as antivirals; also recorded: good activity against HIV		88%	active as antivirals; also recorded: good activity against HIV		40.9 ± 35.8%	99%						more anti-proliferative than HU+ddI ([1]; 10 μM, spider graph FIG. 3): 20%
CCN(CC)c1nc(SC)nc2c1cnn2CC(Cl)c1ccccc1 (stereo not shown) [VS1-032]	comparable or even greater than HU											22.0 ± 14.5%	131.8 ± 58.6%	19.7 ± 7.2%	59.3 ± 8.1%	99.1 ± 3.7%	
CSc1nc(NCCc2ccccc2)c2cnn(C=Cc3ccccc3)c2n1 [VS1-005, 1-styryl-6-methylthio-N-(2-phenylethyl)-1H-pyrazolo[3,4-d]pyrimidin-4-amine]	slightly lower compared to HU		did not induce apoptosis; also recorded: no effect on apoptosis; also recorded: did not affect the percentage of apoptotic events	97%	strong anti-HIV activity; also recorded: same antiviral power			active also against HIV in activated T cells; also recorded: same antiviral power; also recorded: same antiviral activity		84.3 ± 22.7%	27%						anti-proliferative capacity less than HU+ddI ([1]; 10 μM, spider graph FIG. 3): 50%
CCOCCNc1nc(SC)nc2c1cnn2CC(Cl)c1ccccc1 (stereo not shown) [VS1-033]	comparable or even greater than HU											15.4 ± 6.7%	138.6 ± 49.7%	15.0 ± 3.0%	57.1 ± 10.2%	108.1 ± 3.5%	
OCCNc1nc(NCc2ccccc2)c2cnn(C=Cc3ccccc3)c2n1 [VS1-015]								better anti-HIV activity than HU				55.4 ± 6.0%	63.9 ± 9.2%	7.6 ± 2.8%	15.3 ± 2.4%	82.0 ± 5.8%	
Fc1ccc(CNc2ncnc3c2cnn3CC(Cl)c2ccc(Cl)cc2)cc1 (stereo not shown) [VS1-029, 1-[2-chloro-2-(4-chlorophenyl)ethyl]-N-(4-fluorobenzyl)-1H-pyrazolo[3,4-d]pyrimidin-4-amine]	good anti-proliferative capacity (superior to 100 μM HU)	+++ (excellent (+++, greater than 70% activity))	no more apoptotic than HU; also recorded: slight increase		good anti-HIV activity	+++ (excellent (+++, greater than 70% activity))		good anti-HIV activity	+++ (excellent (+++, greater than 70% activity))	96.8 ± 4.5%	95%						more anti-proliferative than HU+ddI ([1]; 10 μM, spider graph FIG. 3): about 20%; inhibition at 10 µM (HIV-1 NL 4.3 [3]): 94%; inhibition at 10 µM (HIV-1 NL 4.3 [4]): 88%
CCCCNc1nc(SC)nc2c1cnn2CC(Cl)c1ccccc1 (stereo not shown) [VS1-024]	equal to or a little less anti-proliferative than HU	++ (good (++, 50 to 70% activity))	not proapoptotic		slightly less potent against HIV	+++ (excellent (+++, greater than 70% activity))			+++ (excellent (+++, greater than 70% activity))			45.5 ± 10.9%	126.7 ± 23.9%	24.3 ± 9.4%	10.1 ± 7.4%		
C(=Cn1ncc2c(N3CCOCC3)ncnc21)c1ccccc1 [VS1-009]	very little activity							very little activity				88.4 ± 19.8%	114.2 ± 21.3%	71.8 ± 42.9%	44.8 ± 14.9%		
